How the values were obtained:
[1] = biological target: T1, Sentrin-specific protease 1 (Homo sapiens, UniProt Q9P0U3); experiment: Inhibition of SENP1 (unknown origin)
T1 sequence (Q9P0U3 whole entry): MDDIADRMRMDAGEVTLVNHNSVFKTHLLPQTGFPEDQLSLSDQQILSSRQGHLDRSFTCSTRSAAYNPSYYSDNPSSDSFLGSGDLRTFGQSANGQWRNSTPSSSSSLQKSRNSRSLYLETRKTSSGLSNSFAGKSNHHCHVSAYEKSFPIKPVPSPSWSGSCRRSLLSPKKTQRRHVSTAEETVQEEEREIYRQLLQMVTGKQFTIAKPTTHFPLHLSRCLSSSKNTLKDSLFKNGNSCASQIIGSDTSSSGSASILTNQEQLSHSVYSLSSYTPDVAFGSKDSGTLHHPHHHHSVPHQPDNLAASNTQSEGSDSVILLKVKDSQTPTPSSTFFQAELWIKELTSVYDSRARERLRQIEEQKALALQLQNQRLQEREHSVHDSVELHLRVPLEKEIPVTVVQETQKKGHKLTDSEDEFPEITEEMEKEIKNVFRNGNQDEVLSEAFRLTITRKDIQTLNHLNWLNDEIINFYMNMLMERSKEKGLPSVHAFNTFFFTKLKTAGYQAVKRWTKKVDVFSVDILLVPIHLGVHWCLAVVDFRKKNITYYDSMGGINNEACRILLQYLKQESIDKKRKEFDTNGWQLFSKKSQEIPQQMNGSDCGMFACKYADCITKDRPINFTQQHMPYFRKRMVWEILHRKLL

[2] = biological target: T1, Sentrin-specific protease 1; experiment: Inhibition of human full-length recombinant SENP1

## Cc1cc(OCC(=O)Nc2nonc2NC(=O)COc2ccc(Cl)c(C)c2)ccc1Cl
[1]
  IC50: > 30 µM

## CCCCOc1ccc(-c2nonc2NC(=O)COc2ccccc2C)cc1
[1]
  IC50: > 30 µM

## O=C(Cc1ccccc1)Oc1c(OC(=O)Cc2ccccc2)c(-c2ccc(O)cc2)c(O)c(O)c1-c1ccc(O)cc1 [VIALININ A]
[2]
  IC50: 1.6 µM
